Experimental data from patent US8119687B2, “Derivatives of dioxan-2-alkyl carbamates, preparation thereof and application thereof in therapeutics” (Sanofi-Aventis, priority 2002, dated 2012).

melting point [°C]	SMILES
131 to 133	O=C(NCC[C@H]1OC[C@H](c2cccc3ccccc32)CO1)Oc1ccccc1
125 to 127	O=C(NCCC[C@H]1OC[C@H](c2cccc3ccccc32)CO1)Oc1ccccc1
129 to 131	COc1ccc2c(cccc2[C@H]2CO[C@H](CCNC(=O)Oc3ccc(Cl)cc3)OC2)c1
128	COc1ccc2c(cccc2[C@H]2CO[C@H](CCCNC(=O)Oc3ccccc3)OC2)c1
159 to 162	O=C(NCCC[C@H]1OC[C@H](c2cccc3cc(OCC4CC4)ccc32)CO1)Oc1ccc(Cl)cc1
151 to 153	COc1ccc2cccc([C@H]3CO[C@H](CCCNC(=O)Oc4ccccc4)OC3)c2c1
130 to 131	O=C(NCCC[C@H]1OC[C@H](c2ccc3ccccc3c2)CO1)Oc1ccccc1
176 to 178	NC(=O)COC(=O)NCCC[C@H]1OC[C@H](c2ccc(Cl)c3ccccc32)CO1 [Compound No. 46, 2-Amino-2-oxoethyl trans-3-[5-(4-chloronaphthalen-1-yl)-1,3-dioxan-2-yl]propylcarbamate]
176	COc1ccc2c(cccc2[C@H]2CO[C@H](CCCNC(=O)OCC(=O)NC3CC3)OC2)c1 [Compound No. 61, 2-(Cyclopropylamino)-2-oxoethyl trans-3-[5-(6-methoxy-naphthalen-1-yl)-1,3-dioxan-2-yl]propylcarbamate]
105 to 107	O=C(NCCC[C@H]1OC[C@H](c2cccc3cc(OCC4CC4)ccc32)CO1)OCC(F)(F)F [Compound No. 68, 2,2,2-Trifluoroethyl trans-3-[5-(6-cyclopropylmethoxy-naphthalen-1-yl)-1,3-dioxan-2-yl]propylcarbamate]
112 to 114	NC(=O)COC(=O)NCCC[C@H]1OC[C@H](c2cccc3ccccc32)CO1 [compound 38, 2-amino-2-oxoethyl trans-3-[5-(naphthalen-1-yl)-1,3-dioxan-2-yl]propylcarbamate]
86 to 88	CNC(=O)COC(=O)NCC[C@H]1OC[C@H](c2cccc3ccccc32)CO1 [compound 39, 2-(methylamino)-2-oxoethyl trans-2-[5-(naphthalen-1-yl)-1,3-dioxan-2-yl]ethylcarbamate]
154	CNC(=O)COC(=O)NCCC[C@H]1OC[C@H](c2cccc3ccccc32)CO1 [compound 40, 2-(methylamino)-2-oxoethyl trans-3-[5-(naphthalen-1-yl)-1,3-dioxan-2-yl]propylcarbamate]
111 to 113	O=C(NCC[C@H]1OC[C@H](c2cccc3ccccc32)CO1)OCC(F)(F)F [compound 41, 2,2,2-trifluoroethyl trans-2-[5-(naphthalen-1-yl)-1,3-dioxan-2-yl]ethylcarbamate]
89 to 92	O=C(NCCC[C@H]1OC[C@H](c2cccc3ccccc32)CO1)OCC(F)(F)F [compound 42, 2,2,2-trifluoroethyl trans-3-[5-(naphthalen-1-yl)-1,3-dioxan-2-yl]propylcarbamate]
190 to 192	CNC(=O)COC(=O)NCCC[C@H]1OC[C@H](c2ccc(Cl)c3ccccc32)CO1 [compound 47, 2-(methylamino)-2-oxoethyl trans-3-[5-(4-chloro-naphthalen-1-yl)-1,3-dioxan-2-yl]propylcarbamate]

melting point [°C]	SMILES
182 to 184	CNC(=O)COC(=O)NCCC[C@H]1OC[C@H](c2cccc3cc(Cl)ccc32)CO1 [compound 48, 2-(methylamino)-2-oxoethyl trans-3-[5-(6-chloro-naphthalen-1-yl)-1,3-dioxan-2-yl]propylcarbamate]
136 to 138	CNC(=O)COC(=O)NCC[C@H]1OC[C@H](c2cccc3cc(OC)ccc32)CO1 [compound 54, 2-(methylamino)-2-oxoethyl trans-2-[5-(6-methoxy-naphthalen-1-yl)-1,3-dioxan-2-yl]ethylcarbamate]
93 to 95	COc1ccc2c(cccc2[C@H]2CO[C@H](CCNC(=O)OCC(F)(F)F)OC2)c1 [compound 56, 2,2,2-trifluoroethyl trans-2-[5-(6-methoxynaphthalen-1-yl)-1,3-dioxan-2-yl]ethylcarbamate]
128 to 130	CNC(=O)COC(=O)NCCC[C@H]1OC[C@H](c2cccc3cc(OC)ccc32)CO1 [compound 57, 2-(methylamino)-2-oxoethyl trans-3-[5-(6-methoxy-naphthalen-1-yl)-1,3-dioxan-2-yl]propylcarbamate]
170 to 172	CCNC(=O)COC(=O)NCCC[C@H]1OC[C@H](c2cccc3cc(OC)ccc32)CO1 [compound 58, 2-(ethylamino)-2-oxoethyl trans-3-[5-(6-methoxy-naphthalen-1-yl)-1,3-dioxan-2-yl]propylcarbamate]
152	COc1ccc2c(cccc2[C@H]2CO[C@H](CCCNC(=O)OCC(=O)NCc3ccncc3)OC2)c1 [compound 60, 2-[(pyridin-4-yl)methylamino]-2-oxoethyl trans-3-[5-(6-methoxynaphthalen-1-yl)-1,3-dioxan-2-yl]propylcarbamate]
111	COc1ccc2c(cccc2[C@H]2CO[C@H](CCCNC(=O)OCC(F)(F)F)OC2)c1 [compound 62, 2,2,2-trifluoroethyl trans-3-[5-(6-methoxynaphthalen-1-yl)-1,3-dioxan-2-yl]propylcarbamate]
137 to 139	NC(=O)COC(=O)NCCC[C@H]1OC[C@H](c2cccc3cc(OCC4CC4)ccc32)CO1 [compound 66, 2-amino-2-oxoethyl trans-3-[5-(6-cyclopropylmethoxy-naphthalen-1-yl)-1,3-dioxan-2-yl]propylcarbamate]
166 to 170	NC(=O)COC(=O)NCCC[C@H]1OC[C@H](c2cccc3cc(O)ccc32)CO1 [compound 70, 2-amino-2-oxoethyl trans-3-[5-(6-hydroxynaphthalen-1-yl)-1,3-dioxan-2-yl]propylcarbamate]
140 to 148	CNC(=O)COC(=O)NCCC[C@H]1OC[C@H](c2cccc3cc(O)ccc32)CO1 [compound 71, 2-(methylamino)-2-oxoethyl trans-3-[5-(6-hydroxy-naphthalen-1-yl)-1,3-dioxan-2-yl]propylcarbamate]
156 to 158	COc1ccc2cccc([C@H]3CO[C@H](CCCNC(=O)OCC(N)=O)OC3)c2c1 [compound 72, 2-amino-2-oxoethyl trans-3-[5-(7-methoxynaphthalen-1-yl)-1,3-dioxan-2-yl]propylcarbamate]
144 to 146	CNC(=O)COC(=O)NCCC[C@H]1OC[C@H](c2cccc3ccc(OC)cc32)CO1 [compound 73, 2-(methylamino)-2-oxoethyl trans-3-[5-(7-methoxy-naphthalen-1-yl)-1,3-dioxan-2-yl]propylcarbamate]
93 to 96	COc1ccc2cccc([C@H]3CO[C@H](CCCNC(=O)OCC(F)(F)F)OC3)c2c1 [compound 74, 2,2,2-trifluoroethyl trans-3-[5-(7-methoxynaphthalen-1-yl)-1,3-dioxan-2-yl]propylcarbamate]
144 to 146	CNC(=O)COC(=O)NCCC[C@H]1OC[C@H](c2ccc3ccccc3c2)CO1 [compound 77, 2-(methylamino)-2-oxoethyl trans-3-[5-(naphthalen-2-yl)-1,3-dioxan-2-yl]propylcarbamate]
130 to 132	O=C(NCCC[C@H]1OC[C@H](c2ccc3ccccc3c2)CO1)OCC(F)(F)F [compound 78, 2,2,2-trifluoroethyl trans-3-[5-(naphthalen-2-yl)-1,3-dioxan-2-yl]propylcarbamate]
